Results on one sequence are retold here after article PMC11237612, “Mutation of the peptide-regulated transcription factor ComR for amidated peptide specificity and heterologous function in Lactiplantibacillus plantarum WCFS1” (Microbiology Spectrum, 2024).

This assay has as its system S. thermophilus ComR containing five mutations (R92G, V205A, S248G, S289K, and I290T). Briefly: GFP signal in E. coli expressing five-mutation ComR. To be noted: 100 µM peptide, GFP signal (Fig. S3). Format: cell-based. The source says: The selection of mutant ComRs with altered specificity highlighted the utility of the screening system built in E. coli. We attempted to further validate this screening system by cloning a version of S. thermophilus ComR containing five mutations (R92G, V205A, S248G, S289K, and I290T), which was reported to have altered specificity for the 8 amino-acid long XIP from S. vestibularis (VPFFMIYY) ([20]).
ComR sensor circuits were constructed on plasmid pACYC184 (American Type Culture Collection #37033) such that ComR activation promoted GFP expression. This was done by assembling synthetic dsDNA fragments (Integrated DNA Technology) using NEBuilder® HiFi DNA Assembly Master Mix (NEB, E2621S). The full sequence of plasmid pAC-J23107*-ComR, on which the ComR mutant library was made is included in supplemental materials. The ComR mutant (K100NNK) library was created by PCR amplifying all but the K100 codon and then assembling it with degenerate oligos (Integrated DNA Technology) using NEBuilder® HiFi DNA Assembly Master Mix (NEB, E2621S). […] Bacteria were incubated in a large radius shaker (Eppendorf S441) at 37°C for 9 hours, then GFP fluorescence was read using a TECAN Spark 20M plate reader. […]

Regarding “VPFFMIYY [S. vestibularis XIP, 8 amino-acid long XIP from S. vestibularis (VPFFMIYY)]”, the “GFP signal of five-mutation ComR with S. vestibularis XIP” value was “only a slight increase in GFP signal”.
